# Like-named read-outs stand apart in the source and are kept apart here.
# How the values were obtained:
# HeLa MCTS [1] = assay: 3D MCTS growth inhibition assay; assay type: cell-based, human; conditions: dark; 1–7 and H2TPP 20 μM, cisplatin 10 μM and 30 μM
# Procedure: MCTS were treated with the sample (20 μM 1–7, 20 μM tetraphenylporphyrin H2TPP, 10 μM cisplatin, 30 μM cisplatin, 2% DMSO, v%) by replacing 50% of the media with drug supplemented media in the dark for 3 days. After this time, the MCTS were exposed to a 1-Photon (500 nm, 16.7 min, 10.0 mW cm^−2, and 10 J cm^−2) irradiation using a LED light source or 2-Photon (800 nm, 10 J cm^−2 with a section interval of 5 μm) irradiation using a LSM 880 (Carl Zeiss) laser scanning confocal microscope equipped with a Coherent Chameleon 2-Photon laser. The cell culture media was replaced every 2 days. The integrity and diameter of the MCTs was monitored with an Axio Observer Z1 (Carl Zeiss) phase contrast microscope every 24 h.
# HeLa MCTS [2] = assay: (Photo-)cytotoxicity on 3D MCTS (ATP concentration); assay type: cell-based, human; conditions: 1-3 as chloride salts
# Procedure: The cytotoxicity of the compounds in 3D MCTS was assessed by measurement of the ATP concentration. MCTS were treated with increasing concentrations of the compound (2% DMSO, v%) by replacing 50% of the media with drug supplemented media and incubation for 12 h. After this time, the MCTS were divided in three identical groups. The first group was strictly kept in the dark. The second group was exposed to a 1-Photon irradiation (500 nm, 16.7 min, 10.0 mW cm^−2, and 10 J cm^−2) using a LED light source and the third group was exposed to a 2-Photon irradiation (800 nm, 10 J cm^−2 with a section interval of 5 μm) using a LSM 880 (Carl Zeiss, Germany) laser scanning confocal microscope equipped with a Coherent Chameleon 2-Photon laser. After the irradiation, all groups were incubated additional 48 h. The ATP concertation was measured using a CellTiter-Glo 3D Cell Viability kit (Promega) by measuring the generated chemiluminescence with an infinite M200 PRO (Tecan) plate reader.
# [3] = system: human cervical carcinoma (HeLa) cells; assay: (Photo-)cytotoxicity on 2D cell monolayers, HeLa; assay type: cell-based; conditions: for IC50: 1-3 as chloride salts
# [4] = system: human glioblastoma astrocytoma (U373) cells;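 further: Resazurin-to-resorufin fluorescence viability readout, 8 h compound exposure then medium change, light dose 3.1 J cm^−2 at 480 nm or 9.5 J cm^−2 at 540 nm, analysed 40 h later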
# [5] = system: noncancerous retinal pigment epithelium (RPE-1) cells
# [6] = system: mouse colon carcinoma (CT-26) cells
# Procedure: (§1) A total of 4 × 10^3 cells were seeded on 96-well plates and allowed to adhere overnight. The cells were treated with increasing concentrations of the sample diluted in cell media achieving a total volume of 200 μL. The cells were incubated with the sample for 8 h and, after this time, the medium refreshed. To study the phototoxic effect of the sample, the cells were exposed to 480 nm (spectral half-width: 20 nm, 10 min, 5.2 mW cm^−2, 3.1 J cm^−2) or 540 nm (spectral half-width: 30 nm, 40 min, 4.0 mW cm^−2, 9.5 J cm^−2) light using an Atlas Photonics LUMOS BIO irradiator. To study the dark cytotoxicity of the sample, the cells were not irradiated and the medium exchanged. The cells were grown for an additional 40 h at 37 °C. After this time, the medium was replaced with fresh medium containing resazurin with a final concentration of 0.2 mg mL^−1. The cells were incubated for 4 h and the amount of the fluorescent product resorufin determined (λex = 540 nm, λem = 590 nm) with a SpectraMax M2 Microplate Reader (Molecular Devices). The obtained data was analyzed with the GraphPad Prism software.
# [7] = system: mouse colon carcinoma (CT-26) cells; assay: (Photo-)cytotoxicity on 2D cell monolayers, CT-26
# Procedure: as §1
# [8] = system: noncancerous retinal pigment epithelium (RPE-1) cells; assay: (Photo-)cytotoxicity on 2D cell monolayers, RPE-1
# [9] = Photostability (absorption spectra upon irradiation); assay type: physicochemical; conditions: 450 nm, 0 to 10 min (13.2 J cm^−2), air-saturated acetonitrile
# Procedure: The sample was prepared in an air-saturated acetonitrile solution. Using a Atlas Photonics LUMOS BIO irradiator, the sample was constantly irradiated at 450 nm in time intervals from 0 to 10 min (13.2 J cm^−2). The absorption spectra from 350 to 700 nm was monitored with a SpectraMax M2 Microplate Reader (Molecular Devices) at each time interval. As positive and negative controls, respectively, [Ru(2,2′-bipyridine)3]Cl2 and Protoporphyrin IX were used.
# [10] = system: human glioblastoma astrocytoma (U373) cells; assay: (Photo-)cytotoxicity on 2D cell monolayers, U373;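 further: Resazurin-to-resorufin fluorescence viability readout, 8 h compound exposure then medium change, light dose 3.1 J cm^−2 at 480 nm or 9.5 J cm^−2 at 540 nm, analysed 40 h later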
# [11] = parameters: method as in PMID 10907495; conditions: cited from earlier work
# [12] = parameters: method as in earlier work; conditions: acetonitrile; cited from earlier work
# [13] = Homo sapiens, dark, read-out: IC50 dark
smiles,measurement,setting,value
"C1=Cc2nc1c(-c1ccccc1)c1nc(c(-c3ccccc3)c3ccc([nH]3)c(-c3ccccc3)c3ccc([nH]3)c2-c2ccccc2)C=C1 [H2TPP, tetraphenylporphyrin, reference compound]",tumor growth inhibition effect (MCTS volume),HeLa MCTS [1],do not show any inhibitory effect
same,IC50,HeLa MCTS [2]; [13],> 100 µM
same,IC50,"HeLa MCTS [2]; Homo sapiens, light or radiation study, 1P 500 nm, read-out: IC50 1P irradiation (500 nm, 10 J cm-2)",> 100 µM
same,IC50,"HeLa MCTS [2]; Homo sapiens, light or radiation study, 2P 800 nm, section interval 5 μm, read-out: IC50 2P irradiation (800 nm, 10 J cm-2)",> 100 µM
"C=CC1=C(C)c2cc3[nH]c(cc4nc(cc5[nH]c(cc1n2)c(C)c5CCC(=O)O)C(CCC(=O)O)=C4C)c(C)c3C=C [PpIX, Protoporphyrin IX, reference compound]",IC50,"[3]; Homo sapiens, 10 min, 480 nm, read-out: IC50 480 nm (10 min, 3.1 J cm-2)",2.5 µM
same,IC50,"[3]; Homo sapiens, 40 min, 540 nm, read-out: IC50 540 nm (40 min, 9.5 J cm-2)",2.1 µM
same,IC50,[3]; [13],> 100 µM
same,PI (480 nm),[3]; dark vs 480 nm,> 40.0
same,PI (540 nm),[3]; dark vs 540 nm,> 47.6
same,IC50,[4],3.6 µM
same,IC50,[5],3.8 µM
same,IC50,[6],3.5 µM
same,PI (480 nm),"[7]; CT-26, dark vs 480 nm",> 28.6
same,PI (540 nm),"[7]; CT-26, dark vs 540 nm",> 24.4
same,IC50,"[7]; Mus musculus, CT26, 40 min, read-out: IC50 540 nm (40 min, 9.5 J cm-2)",4.1 µM
same,IC50,"[7]; Mus musculus, CT26, read-out: IC50 dark",> 100 µM
same,IC50,"[8]; Homo sapiens, RPE-1, 40 min, read-out: IC50 540 nm (40 min, 9.5 J cm-2)",3.3 µM
same,IC50,"[8]; Homo sapiens, RPE-1, read-out: IC50 dark",> 100 µM
same,PI (480 nm),"[8]; RPE-1, dark vs 480 nm",> 26.3
same,PI (540 nm),"[8]; RPE-1, dark vs 540 nm",> 30.3
same,photostability (change of absorption spectra upon irradiation),[9],drastically changed
same,IC50,"[10]; Homo sapiens, U373 MG, 10 min, read-out: IC50 480 nm (10 min, 3.1 J cm-2)",3.3 µM
same,IC50,"[10]; Homo sapiens, U373 MG, read-out: IC50 dark",> 100 µM
same,PI (480 nm),"[10]; U373, dark vs 480 nm",> 30.3
same,PI (540 nm),"[10]; U373, dark vs 540 nm",> 27.8
O=C([O-])c1c(Cl)c(Cl)c(Cl)c(Cl)c1-c1c2cc(I)c(=O)c(I)c-2oc2c(I)c([O-])c(I)cc12.[Na+].[Na+] [Rose Bengal],"Φ, singlet oxygen quantum yield of the reference",[11],76%
"[Cl-].[Cl-].[Ru+2].c1ccc(-c2ccccn2)nc1.c1ccc(-c2ccccn2)nc1.c1ccc(-c2ccccn2)nc1 [[Ru(2,2′-bipyridine)3]Cl2]","Φem, luminescence quantum yield of the reference",[12],5.9%
"N.N.[Cl][Pt][Cl] [cisplatin, reference compound]",tumor growth inhibition effect (MCTS volume),HeLa MCTS [1],weak effect on the tumor growth
same,IC50,"[3]; dark, read-out: IC50 dark",10.5 µM
same,IC50,"HeLa MCTS [2]; dark, read-out: IC50 dark",18.6 ± 1.3 µM
same,IC50,"[7]; read-out: IC50 dark, CT-26, dark, 1-3 as chloride salts",6.5 µM
same,IC50,"[8]; read-out: IC50 dark, RPE-1, dark, 1-3 as chloride salts",29.3 µM
same,IC50,"[10]; read-out: IC50 dark, U373, dark, 1-3 as chloride salts",17.6 µM
